Values joined by “and” are separate entries in the source; they are usually repeats but may differ in a detail not shown here. Equal values may be shown once. Toxic doses and inconclusive results are not listed.
System: P388 leukemia ip, CD2F1 mice, survival T/C
Experiment: NCI In Vivo Anticancer Drug Screen. Data for tumor model P388 Leukemia (intraperitoneal) in CD2F1 (CDF1) mice
Conditions: endpoint: median survival time, higher = longer survival
How it was run: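 Mice carrying the transplanted tumor received test compound or vehicle. Survival was recorded in each group, and the value is the treated-group measurement divided by that of the vehicle-treated control group.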

[1] = dose: 75.0 mg/kg/injection, schedule: Q01DX009 (ip), vehicle: saline
[2] = dose: 300.0 mg/kg/injection, schedule: Q01DX009 (ip), vehicle: saline
[3] = dose: 60.0 mg/kg/injection, schedule: Q01DX005 (ip), vehicle: saline with Tween-80
[4] = dose: 120.0 mg/kg/injection, schedule: Q01DX005 (ip), vehicle: saline with Tween-80
[5] = dose: 240.0 mg/kg/injection, schedule: Q01DX005 (ip), vehicle: saline with Tween-80
[6] = dose: 50.0 mg/kg/injection, schedule: Q01DX009 (ip), vehicle: saline with Tween-80
[7] = dose: 100.0 mg/kg/injection, schedule: Q01DX009 (ip), vehicle: saline with Tween-80

Compound: CCN(CC)CC(C)Nc1ccc(C)c2sc3ccccc3c(=O)c12 (centres undefined)
- T/C [1]: 175 % of control
- T/C [2]: 100 % of control

Compound: CCOC(=O)[C@H]1C(CC)=NOC1C (some centres undefined)
- T/C [3]: 102 % of control
- T/C [4]: 102 % of control
- T/C [5]: 101 % of control

Compound: CC(=O)CCC12CCC(=O)N1Cc1ccccc1C2=O (centres undefined)
- T/C [3]: 106 % of control
- T/C [4]: 123 % of control
- T/C [5]: 106 % of control

Compound: CC(CN1CCOCC1)(CN1CCOCC1)[N+](=O)[O-]
- T/C (dose: 12.5 mg/kg/injection, schedule: Q01DX009 (ip), vehicle: saline): 111 % of control
- T/C (dose: 25.0 mg/kg/injection, schedule: Q01DX009 (ip), vehicle: saline): 110 % of control
- T/C (dose: 50.0 mg/kg/injection, schedule: Q01DX009 (ip), vehicle: saline): 107 % of control and 111 % of control
- T/C (dose: 100.0 mg/kg/injection, schedule: Q01DX009 (ip), vehicle: saline): 115 % of control

Compound: Clc1ccc(N=C(c2ccncc2)c2cc(Cl)ccc2Cl)cc1
- T/C [6]: 109 % of control
- T/C [7]: 92 % of control

Compound: COc1ccc(C2=C(c3ccccc3)C(=O)C3(c4ccccc4)CC23c2ccc(OC)cc2)cc1 (centres undefined)
- T/C (dose: 50.0 mg/kg/injection, schedule: Q01DX005 (ip), vehicle: Klucel (hydroxypropylcellulose) (HPC)): 97 % of control
- T/C (dose: 100.0 mg/kg/injection, schedule: Q01DX005 (ip), vehicle: Klucel (hydroxypropylcellulose) (HPC)): 89 % of control
- T/C (dose: 200.0 mg/kg/injection, schedule: Q01DX005 (ip), vehicle: Klucel (hydroxypropylcellulose) (HPC)): 92 % of control

Compound: Cc1cc(C)c(N)c(Br)c1
- T/C (dose: 6.25 mg/kg/injection, schedule: Q01DX009 (ip), vehicle: saline with Tween-80): 118 % of control
- T/C (dose: 12.5 mg/kg/injection, schedule: Q01DX009 (ip), vehicle: saline with Tween-80): 113 % of control
- T/C (dose: 12.5 mg/kg/injection, schedule: Q04DX003 (ip), vehicle: saline with Tween-80): 100 % of control
- T/C (dose: 25.0 mg/kg/injection, schedule: Q01DX009 (ip), vehicle: saline with Tween-80): 100 % of control
- T/C (dose: 25.0 mg/kg/injection, schedule: Q04DX003 (ip), vehicle: other): 120 % of control
- T/C (dose: 25.0 mg/kg/injection, schedule: Q04DX003 (ip), vehicle: saline with Tween-80): 100 % of control
- T/C (dose: 50.0 mg/kg/injection, schedule: Q04DX003 (ip), vehicle: other): 120 % of control
- T/C (dose: 50.0 mg/kg/injection, schedule: Q04DX003 (ip), vehicle: saline with Tween-80): 95 % of control

Compound: CCCCCCCCCCCOCC(=O)OC
- T/C [6]: 99 % of control
- T/C [7]: 101 % of control
- T/C (dose: 200.0 mg/kg/injection, schedule: Q01DX009 (ip), vehicle: saline with Tween-80): 100 % of control

Compound: C=C1C(=O)OC2C/C(C)=C/CC/C(C)=C/CCC3(C)OC3CC12 (centres undefined)
- T/C (dose: 4.0 mg/kg/injection, schedule: Q01DX009 (ip), vehicle: Klucel (hydroxypropylcellulose) (HPC)): 104 % of control
- T/C (dose: 8.0 mg/kg/injection, schedule: Q01DX009 (ip), vehicle: Klucel (hydroxypropylcellulose) (HPC)): 104 % of control
- T/C (dose: 16.0 mg/kg/injection, schedule: Q01DX009 (ip), vehicle: Klucel (hydroxypropylcellulose) (HPC)): 108 % of control
- T/C (dose: 32.0 mg/kg/injection, schedule: Q01DX009 (ip), vehicle: Klucel (hydroxypropylcellulose) (HPC)): 105 % of control

Compound: CN1CC2c3ccccc3C(=O)C1(O)c1ccccc12 (centres undefined)
- T/C (dose: 50.0 mg/kg/injection, schedule: Q01DX005 (ip), vehicle: saline with Tween-80): 103 % of control
- T/C (dose: 100.0 mg/kg/injection, schedule: Q01DX005 (ip), vehicle: saline with Tween-80): 103 % of control
- T/C (dose: 200.0 mg/kg/injection, schedule: Q01DX005 (ip), vehicle: saline with Tween-80): 103 % of control

Compound: O=S(=O)(O)CCC(O)S(=O)(=O)O (centres undefined)
- T/C (dose: 60.0 mg/kg/injection, schedule: Q01DX005 (ip), vehicle: saline): 102 % of control
- T/C (dose: 120.0 mg/kg/injection, schedule: Q01DX005 (ip), vehicle: saline): 108 % of control
- T/C (dose: 240.0 mg/kg/injection, schedule: Q01DX005 (ip), vehicle: saline): 94 % of control

Compound: Cc1ccc(N=c2oc(-c3ccccc3)cs2)cc1
- T/C (dose: 100.0 mg/kg/injection, schedule: Q01DX001 (ip), vehicle: saline with Tween-80): 90 % of control
- T/C (dose: 200.0 mg/kg/injection, schedule: Q01DX001 (ip), vehicle: saline with Tween-80): 89 % of control
- T/C (dose: 400.0 mg/kg/injection, schedule: Q01DX001 (ip), vehicle: saline with Tween-80): 88 % of control

Compound: CCCCC1(CC)COC(C)(c2ccccc2)OC1 (centres undefined)
- T/C [1]: 112 % of control
- T/C (dose: 150.0 mg/kg/injection, schedule: Q01DX009 (ip), vehicle: saline): 110 % of control
- T/C [2]: 108 % of control

Source: PubChem BioAssay AID330 (DTP/NCI, 2004)
